Test [1] deals with BRD2BD2 (Homo sapiens, UniProt P25440). In words: competitive FP assay, BRD2 BD2 -/+ FKBP12. Format: binding.
For test [2], the target named is T1, BRD2BD1 (Homo sapiens, UniProt P25440).
T1 construct: to the isolated BD1 and BD2 domains of BRD2, BRD3 and BRD4
Kind of test: competitive FP assay, BRD2 BD1 -/+ FKBP12. Format: binding.

Test [3] deals with BRD4 43-463 Y390A. In words: competitive FP assay, BRD4 tandem construct Y390A. Format: binding.
In test [4] the target is T2, BRD3BD2 (Homo sapiens, UniProt Q15059).
T2 construct: to the isolated BD1 and BD2 domains of BRD2, BRD3 and BRD4
T2 sequence (Q15059 306-415 limits assumed): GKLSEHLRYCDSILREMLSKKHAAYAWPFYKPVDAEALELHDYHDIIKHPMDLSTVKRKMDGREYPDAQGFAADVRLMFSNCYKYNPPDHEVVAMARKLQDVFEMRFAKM
In words: competitive FP assay, BRD3 BD2 -/+ FKBP12. In kind it is binding.

Test [5] relates to BRD4 43-463 Y97A. In words: competitive FP assay, BRD4 tandem construct Y97A. Format: binding.
The target of test [6] is T3, BRD3BD1 (Homo sapiens, UniProt Q15059).
T3 construct: to the isolated BD1 and BD2 domains of BRD2, BRD3 and BRD4
T3 sequence (Q15059 34-140 limits assumed): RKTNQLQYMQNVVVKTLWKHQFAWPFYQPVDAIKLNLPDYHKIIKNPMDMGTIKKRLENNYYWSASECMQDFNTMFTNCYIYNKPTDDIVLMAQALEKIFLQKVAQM
Kind of test: competitive FP assay, BRD3 BD1 -/+ FKBP12. Format: binding.

Test [7] has as its target T4, FKBP12 (Homo sapiens, UniProt P62942). Kind of test: NanoBRET FKBP12 in intact HEK293 cells. Format: cell-based. A general note: Bioluminescence resonance energy transfer reports proximity on the nanometre scale.
Test [8] has as its target T5, BRD4^BD2 (Homo sapiens, UniProt O60885).
T5 construct: to the isolated BD1 and BD2 domains of BRD2, BRD3 and BRD4
Kind of test: competitive fluorescence polarization assay, BRD4 BD2 -/+ presenter protein. In kind it is binding. To be noted: for α BRD4^BD2 (binding cooperativity factor): ratio of binding in absence or presence of FKBP12.

Test [9] has as its target T4, FKBP12. In words: competitive fluorescence polarization assay, binding to FKBP12. To be noted: competitive FP assay.
In test [10] the target is T6, BRD4^BD1 (Homo sapiens, UniProt O60885).
T6 construct: to the isolated BD1 and BD2 domains of BRD2, BRD3 and BRD4
Kind of test: competitive fluorescence polarization assay, BRD4 BD1 -/+ presenter protein. In kind it is binding. The note with it: for α BRD4^BD1 (binding cooperativity factor): ratio of binding in absence or presence of FKBP12.

Test [11] concerns the target T7, BRD4 (Homo sapiens, UniProt O60885).
T7 construct: full-length BRD4 fused to NanoLuc at N terminus; expressed in transfected cells; host or cells: HEK293T
In words: NanoBRET BRD4, transient BRD4-NanoLuc in HEK293T cells. Format: cell-based. The note with it: intact HEK293 cells. As for the experimental part:
The NanoBRET assay was performed as described previously[26],[39]. To study BRD4 engagement, we employed two models: cells stably expressing BRD4-NanoLuc and cells with transient BRD4-NanoLuc expression. For stable cell lines, the coding sequence of human BRD4 (Isoform B) was fused in-frame to NanoLuc luciferase under the control of the human ubiquitin C (UbC) promoter, with left and right homology arms targeting the AAVS1 locus in intron 1 of the PPP1R12C gene to facilitate genomic integration. PC3 prostate cancer cells were transfected with this construct and vectors expressing Cas9 and an sgRNA targeting the AAVS1 locus using Lipofectamine 3000 (Invitrogen). Successful integrands were selected with blasticidin. Expression of the fusion protein was confirmed by western blot. For transient experiments, full-length BRD4 fused to NanoLuc at N terminus, was cloned into an expression plasmid and transfected into HEK293T cells using FuGENE HD (Promega, E2312), with protein expression allowed for 20 h. Serially diluted inhibitors and BRD Tracer-02 (Promega, TracerDB ID: T000022) at the Tracer KD concentration (from TracerDB)[40] were dispensed into white 384-well plates (Greiner 781207) using an ECHO 550 acoustic dispenser (Labcyte). The cells were trypsinized, resuspended in Opti-MEM without phenol red (Life Technologies), and seeded at 2 × 10^5 cells/mL. After equilibration for 2 h at 37 °C/5% CO₂ following compound treatment, the NanoBRET® NanoGlo Substrate + Extracellular NanoLuc® Inhibitor (Promega, N2162) was added according to the manufacturer’s protocol, and filtered luminescence was measured on a PHERAstar plate reader (BMG Labtech) using a donor (450 nm BP) and acceptor (610 nm LP) filter pair. Competitive displacement data were analyzed using GraphPad Prism 9 with a normalized 3-parameter curve fit: Y = 100/(1 + 10^(X − log IC₅₀)). For BRET measurements after FKBP12 knockdown in stably expressing BRD4 Nano-Luc reporter cell line, 10 nL/per well of the FKBP12 PROTAC was pipetted to each well using Labcyte to achieve the final concentration of 200 nM and the plated cells were incubated over-night at 37 °C and 5% CO2. BRET measurements were performed as outlined above.

In test [12] the test system is MYC mRNA. In words: quantitative RT-PCR of MYC mRNA, MV4-11. Format: cell-based, human. To be noted: MV4-11.
The mark [13] stands for this setting: presence of 15 µM FKBP12, read-out: Binding to BRD4^BD2 + FKBP12 Kd (converted).
Where [14] appears, read: presence of 15 µM FKBP12, read-out: Binding to BRD4^BD1 + FKBP12 Kd (converted).
The mark [15] stands for this setting: absence of FKBP12, 2 nM JQ1-FL tracer, read-out: Binding to BRD4^BD1 - FKBP12 Kd.
The mark [16] stands for this setting: absence of FKBP12, 2 nM JQ1-FL tracer, read-out: Binding to BRD4^BD2 - FKBP12 Kd.

Like-named read-outs stand apart in the source and are kept apart here.

The record followed here is paper PMC13586308, “Cell type–selective targeting by heterobifunctional protein binders via in-cell enrichment” (Nature Communications, 2026).

T4 sequence (P62942 whole entry): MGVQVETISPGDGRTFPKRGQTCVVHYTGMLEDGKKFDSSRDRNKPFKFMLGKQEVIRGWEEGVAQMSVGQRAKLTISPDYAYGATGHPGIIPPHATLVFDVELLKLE
BRD2BD2, sequence (P25440 344-453 limits assumed): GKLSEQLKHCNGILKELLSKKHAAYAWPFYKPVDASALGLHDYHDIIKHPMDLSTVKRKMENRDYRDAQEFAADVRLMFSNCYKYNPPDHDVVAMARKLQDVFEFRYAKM
T1 sequence (P25440 74-180 limits assumed): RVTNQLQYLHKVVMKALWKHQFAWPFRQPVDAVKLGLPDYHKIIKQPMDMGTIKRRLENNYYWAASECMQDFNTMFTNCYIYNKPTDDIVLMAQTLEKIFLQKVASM

In the case of `Cc1sc2c(c1C)C(c1ccc(Cl)cc1)=N[C@@H](CC(=O)OC(C)(C)C)c1nnc(C)n1-2` [JQ1, (+)-JQ1, reference compound], in test [1], the “α BRD2BD2” value stood at 1.0. In addition, in [2], the “α BRD2BD1” value came out at 1.0. Besides, the “α BRD4 43-463 Y390A” value in test [3] is 1.0. In addition, in test [4], the “α BRD3BD2” value is 1.0. In addition, the “α BRD4 43-463 Y97A” value in [5] is 1.2. In test [6], the “α BRD3BD1” value came to 1.0.
For `Cc1sc2c(c1C)C(c1ccc(Cl)cc1)=NC(CC(=O)N1CC(CN3CCC(n4cc(C5CN(Cc6ccccn6)C(=O)C6CCCC5N6S(=O)(=O)c5cc(Cl)cc(Cl)c5)nn4)CC3)C1)c1nnc(C)n1-2` (centres unmarked) [a11c], the IC50 came out at 218 nM in test [7] and 1230 nM in test [11]. Further, the Kd was 450 ± 70 nM in test [8] (setting [13]), 0.7 nM in test [9] and 190 ± 30 nM in test [10] (setting [14]). For the same molecule, the “α BRD4^BD2 (binding cooperativity factor)” value (shortened to “α BRD4^BD2”) in [8] is 4.7. For the same molecule, the “α BRD4^BD1 (binding cooperativity factor)” value (from here on “α BRD4^BD1”) in [10] is given as 5.3.
Take `Cc1sc2c(c1C)C(c1ccc(Cl)cc1)=NC(CC(=O)N1CC(CN3CCC(n4cc(COCC5CN(Cc6ccccn6)C(=O)C6CCCC5N6S(=O)(=O)c5cc(Cl)cc(Cl)c5)nn4)CC3)C1)c1nnc(C)n1-2` (centres unmarked) [a11d]: the IC50 in test [7] was determined as 165 nM; in [11], 687 nM. Also, the Kd in test [8] (setting [13]) was 700 ± 100 nM; in [9], 0.8 nM; in test [10] (setting [15]), 480 ± 70 nM; in [10] (setting [14]) it was 40 ± 10 nM. Besides, in test [8], the “α BRD4^BD2” value turned out to be 1.8. Further, the “α BRD4^BD1” value in test [10] was 12.
Take `Cc1sc2c(c1C)C(c1ccc(Cl)cc1)=NC(CC(=O)N1CC(CN3CCC(Cn4cc(C5CN(Cc6ccccn6)C(=O)C6CCCC5N6S(=O)(=O)c5cc(Cl)cc(Cl)c5)nn4)CC3)C1)c1nnc(C)n1-2` (centres unmarked) [a12c]: the figures for the IC50 in [7] and in test [11] were 280 nM and 748 nM, respectively. The Kd is 800 ± 100 nM in [8] (setting [16]); 700 ± 90 nM in test [8] (setting [13]); 1.8 nM in test [9]; 390 ± 50 nM in [10] (setting [15]); 230 ± 20 nM in test [10] (setting [14]). Further, the “α BRD4^BD2” value in test [8] was found to be 1.1. In addition, in test [10], the “α BRD4^BD1” value is given as 1.7.
`Cc1sc2c(c1C)C(c1ccc(Cl)cc1)=NC(CC(=O)N1CC(CN3CCC(Cn4cc(COCC5CN(Cc6ccccn6)C(=O)C6CCCC5N6S(=O)(=O)c5cc(Cl)cc(Cl)c5)nn4)CC3)C1)c1nnc(C)n1-2` (centres unmarked) [a12d]: the IC50 in test [7] came to 406 nM; in [11] it was 514 nM. In addition, the Kd in [8] (setting [13]) is 590 ± 70 nM; in test [9], 2.3 nM; in test [10] (setting [15]) it was 250 ± 40 nM; in test [10] (setting [14]), 40 ± 10 nM. Moreover, the “α BRD4^BD2” value in test [8] was found to be 1.9. Moreover, the “α BRD4^BD1” value in test [10] stood at 6.3.
With `Cc1sc2c(c1C)C(c1ccc(C#CCNC(=O)COCCn3cc(COCC4CN(Cc5ccccn5)C(=O)C5CCCC4N5S(=O)(=O)c4cc(Cl)cc(Cl)c4)nn3)cc1)=NC(CC(=O)OC(C)(C)C)c1nnc(C)n1-2` (centres unmarked) [b3d], the IC50 was determined as 15 nM in [7] and 266 nM in [11]. Also, the Kd in test [8] (setting [16]) was 110 ± 30 nM; in [9], 1 nM; in [10] (setting [15]) it was 68 ± 9 nM; in test [10] (setting [14]) it was 200 ± 30 nM. Also, the “α BRD4^BD2” value in [8] amounted to 0.1. In test [10], the “α BRD4^BD1” value is reported as 0.3.
`CCCCCCCC/C=C\CCCCCCCC(=O)ON1C(=O)CC(S(=O)(=O)O)C1=O` (centres unmarked) [sulfosuccinimidyl oleate (SSO), sulfosuccinimidyl oleate, reference compound]: in test [12], the “effect of CD36 inhibitor on myc repression upon a1dj treatment” value is on record as “did not observe any effect”.

The term IC50 denotes the midpoint of a concentration-inhibition curve. In general, Kd refers to the concentration at which binding is half-saturated.
